Data: patent US8563730B2, “Pyrazole and fused pyrazole glucokinase activators” (Takeda San Diego, Inc., priority 2008, dated 2013)
Like-named read-outs stand apart in the source and are kept apart here.

Molecular target: T1, GK (glucokinase, residues 12-465) (Homo sapiens, UniProt P35557)
T1 construct: I.D. No. 1 corresponds to residues 12-465 of glucokinase; made in house; host or cells: DH10b-T1r E. coli
T1 sequence (P35557 with tags, fused parts or gaps isoform P35557-2): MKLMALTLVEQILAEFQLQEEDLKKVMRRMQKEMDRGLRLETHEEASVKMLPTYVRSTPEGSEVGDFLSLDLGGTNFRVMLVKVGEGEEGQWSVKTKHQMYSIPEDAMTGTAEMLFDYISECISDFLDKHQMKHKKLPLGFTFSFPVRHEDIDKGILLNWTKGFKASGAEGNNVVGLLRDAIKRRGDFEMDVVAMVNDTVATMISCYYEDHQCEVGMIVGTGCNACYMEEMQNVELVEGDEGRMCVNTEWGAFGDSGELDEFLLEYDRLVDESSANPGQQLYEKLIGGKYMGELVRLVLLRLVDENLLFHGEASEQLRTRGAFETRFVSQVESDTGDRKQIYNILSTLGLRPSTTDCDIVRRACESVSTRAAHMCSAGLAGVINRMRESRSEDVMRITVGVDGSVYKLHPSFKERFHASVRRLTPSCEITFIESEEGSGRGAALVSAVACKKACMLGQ
Experiment: enzymatic glucokinase activity assay (ATP consumption, KinaseGlo luminescence)
Assay type: biochemical
Conditions: 5 μM ATP, 5 mM Glucose, reported as bins; for EC50: Kact = concentration that displays 50% of the maximal increase in GK activity, 60 min, room temperature, read-out: pKact
Method in brief: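 E. coli-expressed recombinant GK purified by two anion-exchange steps. Reaction in 25 mM Hepes pH 7.2, 10 mM MgCl2, 1 mM DTT, 5 μM ATP, 5 mM glucose, 2% DMSO, 60 min at room temperature. ATP consumption quantified by KinaseGlo luminescence; pKact and % ACTmax derived by non-linear curve fitting.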

[1] = calculated maximal gain in GK enzyme activity at a saturating concentration of the compound, read-out: % ACTmax
[2] = read-out: % ACTmax, calculated maximal gain in GK enzyme activity at a saturating concentration of the compound

| EC50 [nM] | Emax [1] [%] | Compound | Emax [2] [%] |
| --- | --- | --- | --- |
| 3980 to 12600 | ≤ 90 | Cc1ccc(NC(=O)C(CC2CCOCC2)n2ncc3c(S(=O)(=O)C4CC4)cccc32)nn1 (centres unmarked) [Compound 116, 2-(4-(cyclopropylsulfonyl)-1H-indazol-1-yl)-N-(6-methylpyridazin-3-yl)-3-(tetrahydro-2H-pyran-4-yl)propanamide] | – |
| ≥ 15800 | ≤ 90 | O=C(Nc1ncc(F)s1)[C@@H](CC1CCCC1)n1cc(S(=O)(=O)C2CC2)cn1 [Compound 35, (R)-3-cyclopentyl-2-(4-(cyclopropylsulfonyl)-1H-pyrazol-1-yl)-N-(5-fluorothiazol-2-yl)propanamide] | – |
| ≤ 316 | 106 to 110 | Cn1ccc(NC(=O)C(CC2CCOCC2)n2ncc3c(S(=O)(=O)C4CC4)c(F)ccc32)n1 (centres unmarked) [Compound 152, 2-(4-(cyclopropylsulfonyl)-5-fluoro-1H-indazol-1-yl)-N-(1-methyl-1H-pyrazol-3-yl)-3-(tetrahydro-2H-pyran-4-yl)propanamide] | – |
| ≥ 15800 | ≤ 90 | O=C(Nc1ncc(F)cc1F)C(CC1CCOCC1)n1ncc2c(S(=O)(=O)C3CC3)cccc21 (centres unmarked) [Compound 88, 2-(4-(cyclopropylsulfonyl)-1H-indazol-1-yl)-N-(3,5-difluoropyridin-2-yl)-3-(tetrahydro-2H-pyran-4-yl)propanamide] | – |
| ≥ 15800 | ≤ 90 | O=C1CC[C@H](C[C@H](C(=O)Nc2ncc(F)s2)n2cc(S(=O)(=O)C3CC3)cn2)C1 [Compound 56, (R)-2-(4-(cyclopropylsulfonyl)-1H-pyrazol-1-yl)-N-(5-fluorothiazol-2-yl)-3-((R)-3-oxocyclopentyl)propanamide] | – |
| ≤ 316 | 101 to 105 | N#Cc1cc(S(=O)(=O)C2CC2)c2cnn([C@@H](CC3CCOCC3)C(=O)Nc3ncc(F)s3)c2c1 [Compound 133, (S)-2-(6-cyano-4-(cyclopropylsulfonyl)-1H-indazol-1-yl)-N-(5-fluorothiazol-2-yl)-3-(tetrahydro-2H-pyran-4-yl)propanamide] | – |
| ≥ 15800 | 90 to 100 | CC(C)(C)S(=O)(=O)c1cnn([C@H](CC2CCOCC2)C(=O)Nc2ncc(F)s2)c1 [Compound 52, (R)-2-(4-(tert-butylsulfonyl)-1H-pyrazol-1-yl)-N-(5-fluorothiazol-2-yl)-3-(tetrahydro-2H-pyran-4-yl)propanamide] | – |
| ≥ 15800 | ≤ 90 | COc1ccc2c(cnn2[C@H](CC2CCOCC2)C(=O)Nc2cnccn2)c1S(=O)(=O)C1CC1 [Compound 93, (R)-2-(4-(cyclopropylsulfonyl)-5-methoxy-1H-indazol-1-yl)-N-(pyrazin-2-yl)-3-(tetrahydro-2H-pyran-4-yl)propanamide] | – |
| ≤ 316 | 101 to 105 | O=C(Nc1cnccn1)C(CC1CCOCC1)n1cc2c(S(=O)(=O)C3CC3)c(F)ccc2n1 (centres unmarked) [Compound 156, 2-(4-(cyclopropylsulfonyl)-5-fluoro-2H-indazol-2-yl)-N-(pyrazin-2-yl)-3-(tetrahydro-2H-pyran-4-yl)proanamide] | – |
| 398 to 1260 | 101 to 105 | Nc1cc(S(=O)(=O)C2CC2)c2cnn(C(CC3CCOCC3)C(=O)Nc3cnccn3)c2n1 (centres unmarked) [Compound 96, 2-(6-amino-4-(cyclopropylsulfonyl)-1H-pyrazolo[3,4-b]pyridin-1-yl)-N-(pyrazin-2-yl)-3-(tetrahydro-2H-pyran-4-yl)propanamide] | – |
| 3980 to 12600 | ≤ 90 | COc1cc(S(=O)(=O)C2CC2)c2cnn(C(CC3CCOCC3)C(=O)Nc3ccn(C)n3)c2c1 (centres unmarked) [Compound 83, 2-(4-(cyclopropylsulfonyl)-6-methoxy-1H-indazol-1-yl)-N-(1-methyl-1H-pyrazol-3-yl)-3-(tetrahydro-2H-pyran-4-yl)propanamide] | – |
| 398 to 1260 | ≥ 111 | N#Cc1cnc(NC(=O)[C@H](CC2CCOCC2)n2ncc3c(S(=O)(=O)C4CC4)cccc32)s1 [Compound 136, (S)-N-(5-cyanothiazol-2-yl)-2-(4-(cyclopropylsulfonyl)-1H-indazol-1-yl)-3-(tetrahydro-2H-pyran-4-yl)propanamide] | – |
| ≤ 316 | 106 to 110 | O=C(Nc1ncc(Cl)s1)C(CC1CCOCC1)n1ncc2c(S(=O)(=O)C3CC3)cccc21 (centres unmarked) [Compound 59, N-(5-chlorothiazol-2-yl)-2-(4-(cyclopropylsulfonyl)-1H-indazol-1-yl)-3-(tetrahydro-2H-pyran-4-yl)propanamide] | – |
| ≤ 316 | 106 to 110 | O=C(Nc1ncc(F)s1)[C@H](CC1CCOCC1)n1ncc2c(S(=O)(=O)C3CC3)cc(O)cc21 [Compound 76, (S)-2-(4-(cyclopropylsulfonyl)-6-hydroxy-1H-indazol-1-yl)-N-(5-fluorothiazol-2-yl)-3-(tetrahydro-2H-pyran-4-yl)propanamide] | – |
| 1580 to 3160 | 101 to 105 | Cn1ccc(NC(=O)C(CC2CCOCC2)n2ncc3c(S(=O)(=O)C4CC4)ccnc32)n1 (centres unmarked) [Compound 95, 2-(4-(cyclopropylsulfonyl)-1H-pyrazolo[3,4-b]pyridin-1-yl)-N-(1-methyl-1H-pyrazol-3-yl)-3-(tetrahydro-2H-pyran-4-yl)propanamide] | – |
| 398 to 1260 | 106 to 110 | O=C(Nc1cnccn1)C(CC1CCOCC1)n1ncc2c(S(=O)(=O)C3CC3)ccnc21 (centres unmarked) [Compound 97, 2-(4-(cyclopropylsulfonyl)-1H-pyrazolo[3,4-b]pyridin-1-yl)-N-(pyrazin-2-yl)-3-(tetrahydro-2H-pyran-4-yl)propanamide] | – |
| ≤ 316 | ≤ 90 | COc1cc(S(=O)(=O)C2CC2)c2cnn(C(CC3CCOCC3)C(=O)Nc3ncc(F)s3)c2c1 (centres unmarked) [Compound 72, 2-(4-(cyclopropylsulfonyl)-6-methoxy-1H-indazol-1-yl)-N-(5-fluorothiazol-2-yl)-3-(tetrahydro-2H-pyran-4-yl)propanamide] | – |
| ≥ 15800 | ≤ 90 | O=C(Nc1cnccn1)[C@@H](CC1CCOCC1)n1ncc2c(S(=O)(=O)C3CC3)ccnc21 [Compound 161, (R)-2-(4-(cyclopropylsulfonyl)-1H-pyrazolo[3,4-b]pyridin-1-yl)-N-(pyrazin-2-yl)-3-(tetrahydro-2H-pyran-4-yl)propanamide] | – |

| Compound | EC50 [nM] | Emax [1] [%] | Emax [2] [%] |
| --- | --- | --- | --- |
| NC(=O)c1ccc(NC(=O)C(CC2CCOCC2)n2ncc3c(S(=O)(=O)C4CC4)cccc32)nc1 (centres unmarked) [Compound 14, 6-(2-(4-(cyclopropylsulfonyl)-1H-indazol-1-yl)-3-(tetrahydro-2H-pyran-4-yl)propanamido)nicotinamide] | ≤ 316 | ≥ 111 | – |
| COc1ccc2nc(NC(=O)C(CC3CCOCC3)n3ccc(S(=O)(=O)C4CC4)n3)sc2n1 (centres unmarked) [Compound 1, 2-(3-(cyclopropylsulfonyl)-1H-pyrazol-1-yl)-N-(5-methoxythiazolo[5,4-b]pyridin-2-yl)-3-(tetrahydro-2H-pyran-4-yl)propanamide] | ≥ 15800 | – | ≤ 90 |
| NC(=O)c1ccc(NC(=O)[C@H](CC2CCOCC2)n2ncc3c(S(=O)(=O)C4CC4)cccc32)nc1 [Compound 107, (S)-6-(2-(4-(cyclopropylsulfonyl)-1H-indazol-1-yl)-3-(tetrahydro-2H-pyran-4-yl)propanamido)nicotinamide] | ≤ 316 | – | ≥ 111 |
| O=C(Nc1ncc(Cl)s1)C(CC1CCOCC1)n1cc(NS(=O)(=O)C2CC2)cn1 (centres unmarked) [Compound 9, N-(5-chlorothiazol-2-yl)-2-(4-(cyclopropanesulfonamido)-1H-pyrazol-1-yl)-3-(tetrahydro-2H-pyran-4-yl)propanamide] | 3980 to 12600 | – | ≤ 90 |
